Assays:
Pyrenophora teres = Pyrenophora teres test (barley)/curative; conditions: in Hordeum vulgare, 288 h, read-out: Efficacy in % found
Protocol: Pyrenophora teres Test (Barley)/Curative • Solvent: 50 parts by weight of N,N-dimethylacetamide • Emulsifier: 1 part by weight of alkylaryl polyglycol ether
To test for curative activity, young plants are sprayed with a conidia suspension of Pyrenophora teres. The plants remain in an incubation cabinet at 20° C. and 100% relative atmospheric humidity for 48 hours.
The plants are placed in a greenhouse at a temperature of about 20° C. and a relative atmospheric humidity of about 80%.
Evaluation is carried out 12 days after the inoculation.

[1] = tested on: Erysiphe graminis f.sp. hordei; assay: Erysiphe test (barley)/curative; format: in vivo; conditions: application rate 25 g/ha, curative, evaluation 6 days after inoculation
[2] = tested on: Erysiphe graminis f.sp. hordei; assay: Erysiphe test (barley)/protective; format: in vivo; conditions: application rate 12.5 g/ha, protective, evaluation 6 days after inoculation
Leptosphaeria nodorum [3] = assay: Leptosphaeria nodorum test (wheat)/protective; format: in vivo; conditions: application rate 25 g/ha, protective, evaluation 11 days after inoculation
Sphaerotheca fuliginea = Sphaerotheca fuliginea test (cucumber)/protective; format: in vivo; conditions: protective, 7 days after inoculation; for pest or weed control at 1 g/ha: application rate 1 g/ha; for pest or weed control at 2 g/ha: application rate 2 g/ha
Alternaria solani = Alternaria solani test (tomato)/protective; format: in vivo; conditions: protective, 3 days after inoculation
Leptosphaeria nodorum [4] = assay: Leptosphaeria nodorum test (wheat)/curative; conditions: application rate 25 g/ha, curative, evaluation 8 days after inoculation
Protocol: Leptosphaeria nodorum Test (Wheat)/Curative • Solvent: 50 parts by weight of N,N-dimethylacetamide • Emulsifier: 1 part by weight of alkylaryl polyglycol ether
To test for curative activity, young plants are sprayed with a conidia suspension of Leptosphaeria nodorum.
The plants are placed in a greenhouse at a temperature of about 15° C. and a relative atmospheric humidity of about 80%.
(§1) Evaluation is carried out 8 days after the inoculation.

Puccinia recondita = Puccinia recondita test (wheat)/curative; conditions: application rate 62.5 g/ha, curative, evaluation 8 days after inoculation
Protocol: Puccinia recondita Test (Wheat)/Curative • Solvent: 50 parts by weight of N,N-dimethylacetamide • Emulsifier: 1 part by weight of alkylaryl polyglycol ether
To test for curative activity, young plants are sprayed with a conidia suspension of Puccinia recondita. The plants remain in an incubation cabinet at 20° C. and 100% relative atmospheric humidity for 48 hours.
The plants are placed in a greenhouse at a temperature of about 20° C. and a relative atmospheric humidity of about 80% to promote the development of rust pustules.
as §1

Phytophthora infestans = conditions: in vivo
Rhizoctonia solani = Rhizoctonia solani test (in vitro)/microtitre plates; format: cell-based; conditions: PDB, 5 days of incubation
Protocol: Rhizoctonia solani Test (In Vitro)/Microtitre Plates The microtest is carried out in microtitre plates using potato dextrose broth (PDB) as liquid test medium. The active compounds are used as technical grade a.i., dissolved in acetone. For inoculation, a mycelium suspension of Rhizoctonia solani is used. After 5 days of incubation in the dark and with shaking (10 Hz) for each filled cavity of the microtitre plates, the light transmittance is determined with the aid of a spectrophotometer.

Botrytis cinerea = Botrytis cinerea test (bean)/protective; conditions: protective, 2 days after inoculation
Protocol: After the spray coating has dried on, 2 small pieces of agar colonized by Botrytis cinerea are placed onto each leaf. The inoculated plants are placed in a darkened chamber at about 20° C. and 100% relative atmospheric humidity.
The size of the infected areas on the leaves is evaluated 2 days after the inoculation.

Pyricularia oryzae = format: cell-based; conditions: 3 ppm; in vitro, PDB, 3 days of incubation
Plasmopara viticola = Plasmopara viticola test (grapevine)/protective; format: in vivo; conditions: protective, 6 days after inoculation
[5] = Podosphaera fuliginea, 168 h, read-out: Efficacy in % found
[6] = Podosphaera fuliginea, 168 h, application rate 10 g/ha, read-out: Efficacy in % found

## N#Cc1ccccc1NC(=O)c1snc(Cl)c1Cl [3,4-dichloro-N-(2-cyanophenyl)isothiazole-5-carboxamide]
Pyrenophora teres
  pest or weed control at 125 g/ha: 43%

## Cc1nn(C)c(F)c1C(=O)Nc1ccccc1C(C)CC(C)(C)C (stereo not drawn) [(1-8), 5-fluoro-1,3-dimethyl-N-[2-(1,3,3-trimethylbutyl)phenyl]-1H-pyrazole-4-carboxamide]
[1]
  Efficacy in % found: 0%
[2]
  Efficacy in % found: 11%
Pyrenophora teres
  pest or weed control at 25 g/ha: 14%

## CC(C)CC(C)c1ccccc1NC(=O)c1ccccc1I (stereo not drawn) [(1-13), N-[2-(1,3-dimethylbutyl)phenyl]-2-iodobenzamide]
[2]
  Efficacy in % found: 0%
Leptosphaeria nodorum [3]
  Efficacy in % found: 13%
Sphaerotheca fuliginea; [5]
  pest or weed control at 1 g/ha: 10%
Alternaria solani; application rate 2 g/ha
  Efficacy in % found: 0%
Leptosphaeria nodorum [4]
  Efficacy in % found: 0%

## CC(C)CC(C)c1ccccc1NC(=O)c1ccccc1C(F)(F)F (stereo not drawn) [(1-15), N-[2-(1,3-dimethylbutyl)phenyl]-2-(trifluoromethyl)benzamide]
[2]
  Efficacy in % found: 0%
Pyrenophora teres
  pest or weed control at 25 g/ha: 14%

## CO/C=C(/C(=O)OC)c1ccccc1Oc1cc(Oc2ccccc2C#N)ncn1 [(2-1) azoxystrobin, azoxystrobin]
Sphaerotheca fuliginea; Podosphaera fuliginea, 168 h, application rate 4 g/ha, read-out: Efficacy in % found
  pest or weed control at 4 g/ha: 50%

## CO/N=C(/C1=NOCCO1)c1ccccc1Oc1ncnc(Oc2ccccc2Cl)c1F [(2-2) fluoxastrobin, fluoxastrobin]
Sphaerotheca fuliginea; [5]
  pest or weed control at 2 g/ha: 37%
Pyrenophora teres
  pest or weed control at 25 g/ha: 0%
Leptosphaeria nodorum [4]
  Efficacy in % found: 29%

## CNC(=O)/C(=N/OC)c1ccccc1Oc1ncnc(Oc2cccc(Cl)c2C)c1F [(2-3), (2E)-2-(2-{[6-(3-chloro-2-methylphenoxy)-5-fluoro-4-pyrimidinyl]oxy}phenyl)-2-(methoxyimino)-N-methylethanamide]
Alternaria solani; application rate 1 g/ha
  Efficacy in % found: 39%
Alternaria solani; application rate 2 g/ha
  Efficacy in % found: 32%

## CO/N=C(/C(=O)OC)c1ccccc1CO/N=C(\C)c1cccc(C(F)(F)F)c1 [(2-4) trifloxystrobin, trifloxystrobin]
[2]
  Efficacy in % found: 78%
Sphaerotheca fuliginea; [5]
  pest or weed control at 1 g/ha: 20%

## CO/N=C(/C(=O)OC)c1ccccc1COc1ccccc1C [(2-9) kresoxim-methyl, kresoxim-methyl]
Puccinia recondita
  Efficacy in % found: 0%

## CO/C=C(/C(=O)OC)c1ccccc1COc1cccc(C(F)(F)F)n1 [(2-11) picoxystrobin, picoxystrobin]
Pyrenophora teres
  pest or weed control at 125 g/ha: 86%

## COC(=O)N(OC)c1ccccc1COc1ccn(-c2ccc(Cl)cc2)n1 [(2-12) pyraclostrobin, pyraclostrobin]
Alternaria solani; application rate 2 g/ha
  Efficacy in % found: 37%

## CCCC1COC(Cn2cncn2)(c2ccc(Cl)cc2Cl)O1 (stereo not drawn) [(3-3) propiconazole, propiconazole]
Sphaerotheca fuliginea; [5]
  pest or weed control at 1 g/ha: 37%

## Fc1ccc(C2(Cn3cncn3)OC2c2ccccc2Cl)cc1 (stereo not drawn) [(3-12) epoxyconazole, epoxiconazole]
Pyrenophora teres
  pest or weed control at 125 g/ha: 57%

## OC(Cc1ccccc1Cl)(Cn1nc[nH]c1=S)C1(Cl)CC1 (stereo not drawn) [(3-15) prothioconazole, prothioconazole]
[1]
  Efficacy in % found: 22%
[2]
  Efficacy in % found: 67%
Leptosphaeria nodorum [3]
  Efficacy in % found: 13%
Sphaerotheca fuliginea; [5]
  pest or weed control at 1 g/ha: 43%

## CC(C)(C)C(O)(CCc1ccc(Cl)cc1)Cn1cncn1 (stereo not drawn) [(3-17) tebuconazole, tebuconazole]
Sphaerotheca fuliginea; [5]
  pest or weed control at 2 g/ha: 10%
Pyrenophora teres
  pest or weed control at 25 g/ha: 29%
Leptosphaeria nodorum [4]
  Efficacy in % found: 29%

## CC(C)(C)C(O)C(Oc1ccc(-c2ccccc2)cc1)n1cncn1 (stereo not drawn) [(3-21) bitertanol, bitertanol]
Sphaerotheca fuliginea; [5]
  pest or weed control at 2 g/ha: 20%

## Cc1ccc(N(SC(F)(Cl)Cl)S(=O)(=O)N(C)C)cc1 [(4-2) tolylfluanid, tolylfluanid]
Sphaerotheca fuliginea; [6]
  pest or weed control at 10 g/ha: 0%

## Cc1ccc(C(C)NC(=O)[C@H](NC(=O)OC(C)C)C(C)C)cc1 (stereo partly drawn) [(5-1) iprovalicarb, iprovalicarb]
Phytophthora infestans
  Efficacy in % found: 64%

## CC(C)OC(=O)N[C@H](C(=O)N[C@H](C)c1nc2ccc(F)cc2s1)C(C)C [(5-3) benthiavalicarb, benthiavalicarb]
Phytophthora infestans
  Efficacy in % found: 50%

## O=C(Nc1ccccc1-c1ccc(Cl)cc1)c1cccnc1Cl [(6-2) boscalid, boscalid]
Sphaerotheca fuliginea; [5]
  pest or weed control at 1 g/ha: 10%

## CC1(C(=O)Nc2ccc(O)c(Cl)c2Cl)CCCCC1 [(6-6) fenhexamid, fenhexamid]
Sphaerotheca fuliginea; [6]
  pest or weed control at 10 g/ha: 0%

## CCC1(C(=O)NC(C)c2ccc(Cl)cc2)C(C)C1(Cl)Cl (stereo not drawn) [(6-7) carpropamid, carpropamid]
Pyrenophora teres
  pest or weed control at 125 g/ha: 14%

## CC(C)CC(C)c1sccc1NC(=O)c1cn(C)nc1C(F)(F)F (stereo not drawn) [(6-14) penthiopyrad, penthiopyrad]
Puccinia recondita
  Efficacy in % found: 44%

## COCC(=O)N(c1c(C)cccc1C)[C@H](C)C(=O)OC [(8-4) metalaxyl-M, metalaxyl-M]
Alternaria solani; application rate 2 g/ha
  Efficacy in % found: 0%

## COC(=O)[C@@H](C)N(C(=O)Cc1ccccc1)c1c(C)cccc1C [(8-5) benalaxyl-M, benalaxyl-M]
Alternaria solani; application rate 2 g/ha
  Efficacy in % found: 0%

## Cc1cc(C)nc(Nc2ccccc2)n1 [(9-3) pyrimethanil, pyrimethanil]
Sphaerotheca fuliginea; [6]
  pest or weed control at 10 g/ha: 0%

## CCCOC(=O)NCCCN(C)C [(11-2) propamocarb, propamocarb]
Rhizoctonia solani; 1 ppm
  Efficacy in % found: 7%

## CC(C)NC(=O)N1CC(=O)N(c2cc(Cl)cc(Cl)c2)C1=O [(12-4) iprodione, iprodione]
Sphaerotheca fuliginea; [6]
  pest or weed control at 10 g/ha: 0%
Botrytis cinerea; application rate 5 g/ha
  Efficacy in % found: 13%
Botrytis cinerea; application rate 10 g/ha
  Efficacy in % found: 54%
Botrytis cinerea; application rate 20 g/ha
  Efficacy in % found: 47%

## CCCN(CCOc1c(Cl)cc(Cl)cc1Cl)C(=O)n1ccnc1 [(14-2) prochloraz, prochloraz]
Puccinia recondita
  Efficacy in % found: 0%

## [O-][n+]1nc(-n2ccnc2)nc2ccc(Cl)cc21 [(14-3) triazoxide, triazoxide]
Pyricularia oryzae
  Efficacy in % found: 3%

## N#Cc1c[nH]cc1-c1cccc2c1OC(F)(F)O2 [(16-2) fludioxonil, fludioxonil]
Puccinia recondita
  Efficacy in % found: 0%

## CCO[PH](=O)O [(17-1) fosetyl-A1, fosetyl-A1]
Plasmopara viticola; application rate 500 g/ha
  Efficacy in % found: 33%
Plasmopara viticola; application rate 1000 g/ha
  Efficacy in % found: 58%

## N#Cc1c(Cl)c(Cl)c(Cl)c(C#N)c1Cl [(19-2) chlorothalonil, chlorothalonil]
Sphaerotheca fuliginea; [6]
  pest or weed control at 10 g/ha: 0%

## CCCN(CC)CC1COC2(CCC(C(C)(C)C)CC2)O1 (stereo not drawn) [(19-10) spiroxamine, spiroxamine]
Sphaerotheca fuliginea; [6]
  pest or weed control at 10 g/ha: 0%
Puccinia recondita
  Efficacy in % found: 0%

## CSC1=N[C@@](C)(c2ccccc2)C(=O)N1Nc1ccccc1 [(19-13) fenamidone, fenamidone]
Phytophthora infestans
  Efficacy in % found: 47%

## O=C(Nc1ccccc1)N(Cc1ccc(Cl)cc1)C1CCCC1 [(20-1) pencycuron, pencycuron]
Rhizoctonia solani; 1 ppm
  Efficacy in % found: 54%

## C[C@H](Nc1c(-c2c(F)cc(F)cc2F)c(Cl)nc2ncnn12)C(F)(F)F [(22-1), 5-chloro-N—[(IS)-2,2,2-trifluoro-1-methylethyl]-6-(2,4,6-trifluorophenyl)[1,2,4]triazolo-[1,5-a]pyrimidine-7-amine]
Sphaerotheca fuliginea; [5]
  pest or weed control at 1 g/ha: 22%

## CC(C)[C@@H](C)Nc1c(-c2c(F)cc(F)cc2F)c(Cl)nc2ncnn12 [(22-2), 5-chloro-N—[(IR)-1,2-dimethylpropyl]-6-(2,4,6-trifluorophenyl)[1,2,4]triazolo[1,5-a]-pyrimidine-7-amine]
Sphaerotheca fuliginea; [5]
  pest or weed control at 1 g/ha: 22%

## Cn1cc(C(=O)Nc2ccc(F)cc2-c2ccc(Cl)c(Cl)c2)c(C(F)F)n1 [(24-1), N-(3′,4′-dichloro-5-fluoro-1,1′-biphenyl-2-yl)-3-(difluoromethyl)-1-methyl-1H-pyrazole-4-carboxamide]
Phytophthora infestans
  Efficacy in % found: 0%
Rhizoctonia solani; 0.003 ppm
  Efficacy in % found: 50%

## mancozeb [(7-1) mancozeb]
Sphaerotheca fuliginea; application rate 10 g/ha
  Efficacy in % found: 0%

## propineb [(7-4) propineb]
Sphaerotheca fuliginea; application rate 5 g/ha
  Efficacy in % found: 0%

Source: patent US9717247B2, “Synergistic fungicidal active combinations” (BAYER CROPSCIENCE AG, priority 2003, dated 2017)
